Data as given in patent publication US20240382469A1, “COMBINATION THERAPY WITH DEUTERATED IMIDAZOQUINOLINES” (BIRDIE BIOPHARMACEUTICALS, INC., priority 2021, published 2024).

How the values were obtained:
[1] = test system: CT26 tumor cells; experiment: In vivo efficacy of deuterated compounds in combination with an anti-PD-1 antibody in CT26 animal model; set-up: species or system BALB/c mice; conditions: for tumor size as compared to placebo group and to anti-PD-1 antibody alone group / tumor size over the experimental period: 1.6 μg compound s.c. in combination with 50 μg anti-PD-1 antibody i.p., FIG. 1; for tumor size as compared to placebo group and to anti-PD-1 antibody alone group: days 6, 9 and 12, p<0.05 for both comparisons; for tumor size over the experimental period: followed to day 28
Procedure: Female BALB/c mice (5 to 6-week-old) were randomly divided into 5 groups (n=5 per group), including (1) placebo (PBS; s.c.); (2) anti-PD-1 antibody (50 μg; i.p.); (3) compound 1 and anti-PD-1 antibody; (4) compound 2 and anti-PD-1 antibody; (5) compound 3 and anti-PD-1 antibody.
To challenge mice, CT26 tumor cells (1×10^6 in 0.1 mL) were injected subcutaneously on day 0. Then, mice in each group received totally three doses of placebo, anti-PD-1 antibody or indicated combination therapy on days 6, 9 and 12. In each dose of combination therapy, 1.6 μg of TLR7/8 agonist (compound 1, 2 or 3) was given subcutaneously, and 50 μg of anti-PD-1 antibody (mAb) was given intraperitoneally. All mice were sacrificed on day 28. The tumor size was determined twice a week by multiplication of caliper measurements based on the modified ellipsoidal formula: Tumor volume=½ (length × width^2). Mice with tumor length over 2 cm were considered dead and mice without measurable or palpable tumor masses were considered tumor-free. The significance of all comparisons was calculated by using t-test, and results considered significant when p<0.05.

[2] = test system: TC-1 cells; experiment: In vivo efficacy of compound 1 in combination with various therapeutic antibodies in TC-1 animal model; set-up: species or system C57BL/6 mice; conditions: days 9, 12, 15, 18 and 21, p<0.05, FIG. 3
Procedure: Female C57BL/6 mice (5 to 6-week-old) were randomly divided into 7 groups (n=5 per group), including (1) placebo (PBS, i.p.); (2) compound 1 (1.6 μg; s.c.); (3) compound 1 and anti-CD137 antibody; (4) compound 1 and anti-TIGIT antibody; (5) compound 1 and anti-OX40 antibody; (6) compound 1 and anti-LAG3 antibody; (7) compound 1 and anti-CD47 antibody.
To challenge, each mouse was subcutaneously injected with 1×10^6 TC-1 cells in a volume of 0.1 mL into the left flank at day 0. Then, mice in each group received totally five doses of placebo, compound 1 or indicated combination therapy on days 9, 12, 15, 18 and 21. In each dose of combination therapy, 1.6 μg of compound 1 was given subcutaneously, and 200 μg of therapeutic antibody (anti-CD137, anti-TIGIT, anti-OX40, anti-LAG3 or anti-CD47 antibody) was given intraperitoneally. All mice were sacrificed on day 34. By using the same method as described in example 1, the tumor size was determined and the significance of all comparisons was calculated.

[3] = test system: CT26 tumor cells; experiment: In vivo efficacy of compound 1 or proto-resiquimod in combination with an anti-PD-1 antibody in CT26 animal model; set-up: species or system BALB/c mice
Procedure: Female BALB/c mice (5 to 6-week-old) were randomly divided into 4 groups (n=5 per group), including (1) placebo (PBS; i.p.); (2) anti-PD-1 antibody (50 μg; i.p.); (3) compound 1 (1.6 μg; s.c.) and anti-PD-1 antibody (50 μg; i.p.); (4) proto-resiquimod (1.6 μg; s.c.) and anti-PD-1 antibody (50 μg; i.p.).
To challenge mice, CT26 tumor cells (1×10^6 in 0.1 mL) were injected subcutaneously on day 0. Then, mice in each group received totally three doses of placebo, anti-PD-1 antibody or indicated combination therapy. In placebo group, mice received PBS (s.c.) on days 7, 14 and 21. In anti-PD-1 antibody alone group, mice received 50 μg of anti-PD-1 antibody (i.p.) on days 7, 10 and 14. In each combination therapy group, mice received 1.6 μg of TLR7/8 agonist (compound 1 or proto-resiquimod) (s.c.) on days 7, 14 and 21, and 50 μg of anti-PD-1 antibody (i.p.) on days 7, 10 and 14. All mice were sacrificed on day 28. By using the same method as described in example 1, the tumor size was determined and the significance of all comparisons was calculated.

Compound: [2H]C([2H])([2H])C(O)(C([2H])([2H])[2H])C([2H])([2H])n1c(COCC)nc2c(N)nc3ccccc3c21 [Compound 2]
- tumor size as compared to placebo group and to anti-PD-1 antibody alone group [1]: significantly reduce tumor size
- tumor size over the experimental period [1]: initially well controlled, however, slightly grew at the last week

Compound: [2H]C([2H])([2H])C(O)(Cn1c(COCC)nc2c(N)nc3ccccc3c21)C([2H])([2H])[2H] [Compound 3]
- tumor size as compared to placebo group and to anti-PD-1 antibody alone group [1]: significantly reduce tumor size
- tumor size over the experimental period [1]: initially well controlled, however, slightly grew at the last week

Compound: [2H]C([2H])([2H])C([2H])([2H])OCc1nc2c(N)nc3ccccc3c2n1CC(C)(C)O [Compound 1]
- tumor size as compared to placebo group or compound 1 alone group ([2]; 1.6 μg compound 1 s.c. in combination with 200 μg anti-CD47 antibody i.p.): significantly suppress tumor size
- tumor size as compared to placebo group or compound 1 alone group ([2]; 1.6 μg compound 1 s.c. in combination with 200 μg anti-CD137 antibody i.p.): significantly suppress tumor size
- tumor size as compared to placebo group or compound 1 alone group ([2]; 1.6 μg compound 1 s.c. in combination with 200 μg anti-LAG3 antibody i.p.): significantly suppress tumor size
- tumor size as compared to placebo group or compound 1 alone group ([2]; 1.6 μg compound 1 s.c. in combination with 200 μg anti-OX40 antibody i.p.): significantly suppress tumor size
- tumor size as compared to placebo group or compound 1 alone group ([2]; 1.6 μg compound 1 s.c. in combination with 200 μg anti-TIGIT antibody i.p.): significantly suppress tumor size
- tumor size as compared to placebo group and to anti-PD-1 antibody alone group [1]: significantly reduce tumor size
- tumor size over the experimental period [1]: almost completely suppressed tumor size
- tumor inhibitory effect compared with the other deuterated compounds ([1]; in combination with anti-PD-1 antibody, p<0.05 for each comparison): outstanding and significant tumor inhibitory effect than compounds 2 or 3
- tumor size ([3]; 1.6 μg TLR7/8 agonist s.c. days 7, 14 and 21 in combination with 50 μg anti-PD-1 antibody i.p. days 7, 10 and 14, FIG. 2): potently inhibit tumor size
- tumor inhibitory effect compared with proto-resiquimod ([3]; in combination with anti-PD-1 antibody, p<0.05): more significant tumor inhibitory effect than proto-resiquimod
